Experimental findings from patent US20230331737A1, “MTORC1 MODULATORS AND USES THEREOF” (Aeovian Pharmaceuticals, Inc., priority 2020, published 2023) are described below.

The structures appear in SMILES notation. Where only a bound is given, the exact number is not on record here.

One assay concerns the target T1, mTORC1 (Homo sapiens, UniProt P42345+P62942).
T1 construct: endogenous in cells; host or cells: PC-3 cells
As to the kind of experiment: mTORC1 inhibition in PC-3 cells, AlphaLISA of p70S6K pT389 levels. Format: cell-based. The following applies: mTORC1 as measured by inhibition of p70S6K pT389 levels, read-out: mTROC1 IC50. As for the experimental part:
mTORC1 inhibition was determined via analysis of phosphorylation levels of Phospho-p70 S6 kinase (p70S6K pT389) and Phospho-S6 Ribosomal Protein (pRPS6 pS240/pS244) with the corresponding AlphaLISA kits (PerkinElmer Alpha SF Ultra™ Multiplex phospho (Thr389)/total p70 S6K Assay Kit (Eu/Tb) and AlphaLISA SF Ultra™ p-Ribosomal Protein S6 (Ser240/244) Assay Kit).
%−activity=100*((Sample−Low control)/(High control−Low control))
On the technique in general: Bead proximity is the source of the signal in Alpha formats.

In assay [1] the target is FKBP12 ternary complex with FRB (Homo sapiens, UniProt P42345+P62942). In words: SPR assay to characterize ternary complex formation with FKBP12 (FRB injected over compound-saturated FKBP12). In kind it is binding. The following applies: FRB dilutions with 100 nM test compound over immobilized FKBP12. As for the experimental part: Biotinylated avi-FKBP12 was immobilized on a streptavidin chip (Cytiva Series S SA) using a Biacore 8K or 8k+ (Cytiva). To achieve an immobilization level of 100 RU, 0.3 μg/ml biotinylated avi-FKBP12 were injected for 80 sec at a flow rate of 10 μl/min. Serial dilution of FRB was prepared (12 concentrations, 3-fold dilutions, 0.00011-20 μM) and supplemented with 100 nM of a test compound. A-B-A injection mode was used to ensure saturation immobilized FKBP12 with respective test compound. 100 nM solution of the respective test compound was injected before FRB injection for 120 sec and during dissociation for 420 sec. The FRB dilutions were then injected 120 seconds contact time with increasing concentrations. Rapamycin was used as reference sample. 50 mM HEPES pH 7.5, 150 mM NaCl, 2 mM MgCl2, 1 mM DTT, 0.05% Tween-20, 1% DMSO was used as running buffer at a flow rate of 30 μl/min. The multi-cycle kinetics data were fit to a 1:1 binding model to measure the association rate ka (1/Ms), the dissociation rate kd (1/s) and the affinity Kd (M). In case of fast association and dissociation, steady state affinity analysis following the law of mass action was used to determine the affinity Kd (M).
For orientation: In SPR one partner is held on a chip, and binding of the other changes the refractive index at the surface.

The target in the next assay is FKBP12 (Homo sapiens, UniProt P62942). As to the kind of experiment: SPR assay to determine binding affinity to FKBP12 (direct binding). The following applies: immobilized biotinylated avi-FKBP12, single-cycle kinetics. How it is done: SPR Assay to Determine Binding Affinity to FKBP12.
Sequence of FKBP12 (P62942 whole entry, species assumed): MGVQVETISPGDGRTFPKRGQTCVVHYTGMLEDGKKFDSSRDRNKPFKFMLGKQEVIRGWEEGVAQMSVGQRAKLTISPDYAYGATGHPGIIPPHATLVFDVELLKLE
Biotinylated avi-FKBP12 was immobilized on a streptavidin chip (Cytiva Series S SA) using a Biacore 8K or 8k+ (Cytiva). […] Test compounds described in Table 11 were diluted in DMSO to 100× working concentration. Each test compound was 100-fold diluted in 50 mM HEPES pH 7.5, 150 mM NaCl, 2 mM MgCl2, 1 mM DTT, 0.05% Tween-20 and a serial dilution prepared (9 concentrations, 3-fold dilutions, 0.08-500 nM). […] The compound dilutions were then injected at 100 uL/min for 120 seconds contact time in sequence with increasing concentrations. Dissociation was monitored for 3600 seconds. 50 mM HEPES pH 7.5, 150 mM NaCl, 2 mM MgCl2, 1 mM DTT, 0.05% Tween-20, 1% DMSO was used as running buffer. The single-cycle kinetics data were fit to a 1:1 binding model to measure the association rate ka (1/Ms), the dissociation rate kd (1/s) and the affinity Kd (M).

One may read the IC50 as the midpoint of a concentration-inhibition curve. By Kd is commonly meant a measure of binding affinity in units of concentration. A high value points to a looser complex. For `CO[C@@H]1C[C@H](C[C@@H](C)[C@@H]2CC(=O)[C@H](C)/C=C(\C)[C@@H](O)[C@@H](OC)C(=O)[C@H](C)C[C@H](C)/C=C/C=C/C=C(\C)[C@@H](OC3CC3)C[C@@H]3CC[C@@H](C)[C@@](O)(O3)C(=O)C(=O)N3CCCC[C@H]3C(=O)O2)CC[C@H]1O` [Compound 120, (1R,9S,12S,15R,16E,18R,19R,21R,23S,24E,26E,28E,30S,32S,35R)-30-(cyclopropoxy)-1,18-dihydroxy-12-[(1R)-2-[(1S,3R,4R)-4-hydroxy-3-methoxy-cyclohexyl]-1-methyl-ethyl]-19-methoxy-15,17,21,23,29,35-hexamethyl-11,36-dioxa-4-azatricyclo[30.3.1.04,9]hexatriaconta-16,24,26,28-tetraene-2,3,10,14,20-pentone], the IC50 at mTORC1 is under 0.8 nM. Besides, the Kd in assay [1] was under 500 nM; at FKBP12 it was 0.3 to 1 nM.
Consider `CO[C@@H]1C[C@H](C[C@@H](C)[C@@H]2CC(=O)[C@H](C)/C=C(\C)[C@@H](O)[C@@H](OC)C(=O)[C@H](C)C[C@H](C)/C=C/C=C/C=C(\C)[C@@H](OC3CC3)C[C@@H]3CC[C@@H](C)[C@@](O)(O3)C(=O)C(=O)N3CCCC[C@H]3C(=O)O2)CC[C@H]1OCCO` [Compound 527, (1R,9S,12S,15R,16E,18R,19R,21R,23S,24E,26E,28E,30S,32S,35R)-30-(cyclopropoxy)-1,18-dihydroxy-12-[(1R)-2-[(1S,3R,4R)-4-(2-hydroxyethoxy)-3-methoxy-cyclohexyl]-1-methyl-ethyl]-19-methoxy-15,17,21,23,29,35-hexamethyl-11,36-dioxa-4-azatricyclo[30.3.1.04,9]hexatriaconta-16,24,26,28-tetraene-2,3,10,14,20-pentone], for which, on mTORC1, the IC50 was under 0.8 nM. The Kd in assay [1] was under 500 nM; at FKBP12, 0.3 to 1 nM.
Consider `CO[C@@H]1C[C@H](C[C@@H](C)[C@@H]2CC(=O)[C@H](C)/C=C(\C)[C@@H](O)[C@@H](OC)C(=O)[C@H](C)C[C@H](C)/C=C/C=C/C=C(\C)[C@@H](OCCc3ccccc3)C[C@@H]3CC[C@@H](C)[C@@](O)(O3)C(=O)C(=O)N3CCCC[C@H]3C(=O)O2)CC[C@H]1O` [Compound 520, (1R,9S,12S,15R,16E,18R,19R,21R,23S,24E,26E,28E,30S,32S,35R)-1,18-dihydroxy-12-[(1R)-2-[(1S,3R,4R)-4-hydroxy-3-methoxy-cyclohexyl]-1-methyl-ethyl]-19-methoxy-15,17,21,23,29,35-hexamethyl-30-(2-phenylethoxy)-11,36-dioxa-4-azatricyclo[30.3.1.04,9]hexatriaconta-16,24,26,28-tetraene-2,3,10,14,20-pentone], for which, on mTORC1, the IC50 was under 0.8 nM. In addition, the Kd in assay [1] was under 500 nM; on FKBP12, over 1 nM.
For `COCCO[C@H]1C[C@@H]2CC[C@@H](C)[C@@](O)(O2)C(=O)C(=O)N2CCCC[C@H]2C(=O)O[C@H]([C@H](C)C[C@@H]2CC[C@@H](O)[C@H](OC)C2)CC(=O)[C@H](C)/C=C(\C)[C@@H](O)[C@@H](OC)C(=O)[C@H](C)C[C@H](C)/C=C/C=C/C=C/1C` [Compound 529, (1R,9S,12S,15R,16E,18R,19R,21R,23S,24E,26E,28E,30S,32S,35R)-1,18-dihydroxy-12-[(1R)-2-[(1S,3R,4R)-4-hydroxy-3-methoxy-cyclohexyl]-1-methyl-ethyl]-19-methoxy-30-(2-methoxyethoxy)-15,17,21,23,29,35-hexamethyl-11,36-dioxa-4-azatricyclo[30.3.1.04,9]hexatriaconta-16,24,26,28-tetraene-2,3,10,14,20-pentone] the same measures were under 0.8 nM, under 500 nM and under 0.3 nM.
Take `CO[C@@H]1C[C@H](C[C@@H](C)[C@@H]2CC(=O)[C@H](C)/C=C(\C)[C@@H](O)[C@@H](OC)C(=O)[C@H](C)C[C@H](C)/C=C/C=C/C=C(\C)[C@@H](OCCCCO)C[C@@H]3CC[C@@H](C)[C@@](O)(O3)C(=O)C(=O)N3CCCC[C@H]3C(=O)O2)CC[C@H]1OCCCN1CCOCC1` [Compound 426, (1R,9S,12S,15R,16E,18R,19R,21R,23S,24E,26E,28E,30S,32S,35R)-1,18-dihydroxy-30-(4-hydroxybutoxy)-19-methoxy-12-[(1R)-2-[(1S,3R,4R)-3-methoxy-4-(3-morpholinopropoxy)cyclohexyl]-1-methyl-ethyl]-15,17,21,23,29,35-hexamethyl-11,36-dioxa-4-azatricyclo[30.3.1.0^4,9]hexatriaconta-16,24,26,28-tetraene-2,3,10,14,20-pentone]: the IC50 at mTORC1 was in the range of 0.8 to 1.5 nM. In addition, the Kd was 500 to 1100 nM in assay [1] and under 0.3 nM on FKBP12.
As for `COCCO[C@H]1C[C@@H]2CC[C@@H](C)[C@@](O)(O2)C(=O)C(=O)N2CCCC[C@H]2C(=O)O[C@H]([C@H](C)C[C@@H]2CC[C@@H](OCCCO)[C@H](OC)C2)CC(=O)[C@H](C)/C=C(\C)[C@@H](O)[C@@H](OC)C(=O)[C@H](C)C[C@H](C)/C=C/C=C/C=C/1C` [Compound 427, (1R,9S,12S,15R,16E,18R,19R,21R,23S,24E,26E,28E,30S,32S,35R)-1,18-dihydroxy-12-[(1R)-2-[(1S,3R,4R)-4-(3-hydroxypropoxy)-3-methoxy-cyclohexyl]-1-methyl-ethyl]-19-methoxy-30-(2-methoxyethoxy)-15,17,21,23,29,35-hexamethyl-11,36-dioxa-4-azatricyclo[30.3.1.04,9]hexatriaconta-16,24,26,28-tetraene-2,3,10,14,20-pentone], the IC50 at mTORC1 was under 0.8 nM. In addition, the figures for the dissociation constant Kd (in assay [1]; on FKBP12) were under 500 nM and 0.3 to 1 nM, respectively.
With `COCCO[C@H]1C[C@@H]2CC[C@@H](C)[C@@](O)(O2)C(=O)C(=O)N2CCCCC2C(=O)O[C@H]([C@H](C)C[C@@H]2CC[C@@H](OCCCN3CCN(C)CC3)[C@H](OC)C2)CC(=O)[C@H](C)/C=C(\C)[C@@H](O)[C@@H](OC)C(=O)[C@H](C)C[C@H](C)/C=C/C=C/C=C/1C` (relative stereo) [Compound 431, (1R,9S,12S,15R,16E,18R,19R,21R,23S,24E,26E,28E,30S*,32S,35R)-1,18-dihydroxy-19-methoxy-30-(2-methoxyethoxy)-12-[(1R)-2-[(1S,3R,4R)-3-methoxy-4-[3-(4-methylpiperazin-1-yl)propoxy]cyclohexyl]-1-methyl-ethyl]-15,17,21,23,29,35-hexamethyl-11,36-dioxa-4-azatricyclo[30.3.1.0^4,9]hexatriaconta-16,24,26,28-tetraene-2,3,10,14,20-pentone], the IC50 on mTORC1 was under 0.8 nM. Besides, the results for the dissociation constant Kd (in assay [1]; at FKBP12) were under 500 nM and 0.3 to 1 nM, respectively.
In the case of `CO[C@@H]1C[C@H](C[C@@H](C)[C@@H]2CC(=O)[C@H](C)/C=C(\C)[C@@H](O)[C@@H](OC)C(=O)[C@H](C)C[C@H](C)/C=C/C=C/C=C(\C)[C@H](OC3COC3)C[C@@H]3CC[C@@H](C)[C@@](O)(O3)C(=O)C(=O)N3CCCC[C@H]3C(=O)O2)CC[C@H]1O` [Compound 124, (1R,9S,12S,15R,16E,18R,19R,21R,23S,24E,26E,28E,30R,32S,35R)-1,18-dihydroxy-12-[(2R)-1-[(1S,3R,4R)-4-hydroxy-3-methoxycyclohexyl]propan-2-yl]-19-methoxy-15,17,21,23,29,35-hexamethyl-30-(oxetan-3-yloxy)-11,36-dioxa-4-azatricyclo[30.3.1.04,9]hexatriaconta-16,24,26,28-tetraene-2,3,10,14,20-pentone], the IC50 on mTORC1 was over 1.5 nM. For the same compound, the results for the Kd (in assay [1]; at FKBP12) were over 1100 nM and under 0.3 nM, respectively.
